# Assay results published in paper PMC11979685, “Synthesis of Derivatives of the Antibiotic Albicidin: The N‐Terminal Fragment as Key to Control Potency and Resistance Mediated by the Binding Protein AlbA” (Chemistry (Weinheim an Der Bergstrasse, Germany), 2025).
# Where two headings read alike, the source gives them in different places.
# Experiments:
# [1] = biological target: E. coli DNA gyrase (Escherichia coli, UniProt P0AES4); assay: E. coli gyrase DNA cleavage assay; type: biochemical; parameters: key to Gyrase inhibition strong+ / weak −: + strong inhibition; − weak inhibition in comparison to compound 16; settings: for Gyrase inhibition strong+ / weak −: qualitative DNA cleavage assay at 1 μM and 10 μM, in comparison to compound 16
# Chain of E. coli DNA gyrase (P0AES4 whole entry): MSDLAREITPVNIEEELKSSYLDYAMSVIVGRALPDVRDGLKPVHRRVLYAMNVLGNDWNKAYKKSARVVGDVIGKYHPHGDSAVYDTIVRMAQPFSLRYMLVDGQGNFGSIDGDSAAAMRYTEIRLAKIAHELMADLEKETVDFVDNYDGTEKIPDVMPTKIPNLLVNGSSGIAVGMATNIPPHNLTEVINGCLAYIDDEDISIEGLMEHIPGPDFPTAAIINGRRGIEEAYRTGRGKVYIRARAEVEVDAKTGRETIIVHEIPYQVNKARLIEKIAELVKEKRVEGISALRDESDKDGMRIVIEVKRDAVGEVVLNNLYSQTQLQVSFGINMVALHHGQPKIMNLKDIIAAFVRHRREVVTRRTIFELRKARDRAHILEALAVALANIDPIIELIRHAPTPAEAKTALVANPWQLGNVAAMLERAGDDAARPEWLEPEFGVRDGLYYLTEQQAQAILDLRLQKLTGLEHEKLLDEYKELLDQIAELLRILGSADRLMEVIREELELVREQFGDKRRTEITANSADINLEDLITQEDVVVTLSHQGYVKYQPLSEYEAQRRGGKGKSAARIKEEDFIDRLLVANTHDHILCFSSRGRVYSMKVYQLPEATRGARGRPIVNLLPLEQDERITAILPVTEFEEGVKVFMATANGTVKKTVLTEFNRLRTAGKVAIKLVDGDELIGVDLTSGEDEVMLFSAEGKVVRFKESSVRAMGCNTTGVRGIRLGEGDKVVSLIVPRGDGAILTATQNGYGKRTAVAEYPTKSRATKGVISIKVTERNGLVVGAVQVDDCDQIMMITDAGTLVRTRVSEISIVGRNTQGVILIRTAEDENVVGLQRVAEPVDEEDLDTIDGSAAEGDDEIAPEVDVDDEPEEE
# Procedure: The target activity of the synthesized derivatives was investigated using a DNA cleavage assay with purified and enzymatically active E. coli DNA gyrase[8] (see SI). In this assay, albicidin‐stabilized complexes of gyrase and plasmid DNA are trapped, and subsequently denatured and deproteinated to reveal DNA linearized by gyrase. […] For the best performing compounds, which were able to fully stabilize the cleavage complex at a concentration of 1 μM, the concentrations at half‐maximum cleavage (CC50) were determined (Figure 3).
# 1.2 Escherichia coli Gyrase Cleavage Inhibition Assay
# E. coli gyrase cleavage assays were executed by setting up a master mix including 0.25 µg relaxed plasmid (pBR322) in 35 mM Tris-HCl (pH 7.5), 24 mM KCl, 4 mM MgCl2, 2 mM dithithreitol (DTT), 1.8 mM spermidine, 1 mM ATP, 6.5% (wt/vol) glycerol and 0.1 mg/ml bovine serum albumin per reaction.
# Of this stock solution, 13.2 µL was aliquoted for each reaction into 1.5 mL Eppendorf tubes and supplemented with 0.3 µL of the appropriate compound dilution or DMSO with a […] DMSO concentration of 2% per reaction. The reactions were started with 1.5 µL of 50 nM (pre-screening) or 40 nM (IC50 determinations) wt E. coli gyrase in dilution buffer (50 mM Tris-HCl (pH 7.5), 100 mM KCl, 2 mM DTT, 1 mM EDTA, and 50% (wt/vol) glycerol) for a […] volume of 15 µL. Reactions were incubated at 37°C for 30 minutes before addition of 1.5 µL 0.2% (wt/vol) SDS and 0.75 µL proteinase K (0.2 mg/mL) and further incubation at 37°C for 30 minutes to trap cleavage complexes. Reactions were stopped with 15 µL chloroform:isoamyl alcohol (24: 1 v/v) and 15 µL of STEB (40% (wt/vol) sucrose, […] Tris-Cl pH 8, 10 mM EDTA, 0.5 mg/mL bromophenol blue). After brief vortexing and centrifugation at 2,300g for 5 min, 15 µL of the aqueous phase was loaded onto 1% (wt/vol) agarose in TAE (Tris-acetate […] and EDTA […]) gels supplemented with 10 µg/mL ethidium bromide.
# The gels were run at 85 V for 2 hours.
# DNA was visualized (602/50, UV Trans, auto optimal exposure) with a ChemiDoc MP (Bio-Rad Laboratories Inc., equipped with ImageLab Touch Software v2.0.0.27) and the percentage of cleaved DNA relative to the total amount of DNA per lane was determined with ImageJ software.[2] IC50 curves were generated in GraphPad Prism (v10.0.0) using the non-linear regression curve fit variable slope with four parameters and least squares regression.
# [2] = Reverse-phase HPLC retention time as estimate of lipophilicity; type: physicochemical; settings: indicator of lipophilicity
# Source text: As mentioned before, albicidin 1 is a rather hydrophobic compound and improving its aqueous solubility is desirable. The lipophilicity of drug molecules is commonly characterized by the octanol/water partition coefficient (logP). An alternative approach relies on the correlation between lipophilicity and the retention time (Rt) on a reverse‐phase HPLC column.[31] This approach works well if structurally related compounds are compared as is the case for this SAR study. Rt was thus used to estimate the hydrophilicity of albicidin 1 and its derivatives 2–24 (Table 1).[32]
# [3] = tested on: Bacillus subtilis DSM 10; assay: MIC determination (broth microdilution); type: cell-based; settings: DSM10, read-out: MIC B. sub.
# Procedure: (§1) After completing the syntheses, the antibacterial activity of A‐variations 4–24 was assessed by determination of MIC values against a basic set of gram‐negative and gram‐positive bacteria (Table 1). The monocyclic derivatives 4–8 featuring a cyano‐, trifluoromethyl‐, methoxy‐ and fluoro‐ substituent in para‐position were very active against the gram–negative E. coli and S. typhimurium strains with MIC values in the same range as 3rd Gen albicidin 3 or ciprofloxacin which is the gold standard for gyrase inhibitors. […] These findings are in agreement with previous studies showing good activities for cyano, trifluoromethyl, methoxy and fluoro substituents in the para‐position of different aromatic rings in the building block A.[12, 13] The activity of the monocyclic derivatives 4–8 against the gram‐positive strains B. subtilis and M. luteus were similar but slightly less pronounced compared to the lead structure 3.
# (§2) 1.1 Determination of Minimal Inhibitory Concentrations (MIC)
# (§3) Minimal inhibitory concentration (MIC) against selected bacterial strains values were determined according to the ninth edition of the Approved Standard M07-A9.[1] 20 μL of cryo stocks of bacterial strains were suspended in 20 mL LB medium (Lysogeny broth: 10 g/L peptone, 5 g/L yeast extract, 5 g/L NaCl). Following incubation overnight at 37°C, 200 rpm, the test inoculum was adjusted by 0.5 McFarland Standard in cation adjusted Mueller-Hinton broth (BBLTM Mueller-Hinton Broth II, Becton, Dickinson and Company, New Jersey, USA) to approximately 1x10^6 CFU mL-1. 95 μL of the bacterial inoculum were applied per well of a 96-well plate. Albicidin and albicidin derivatives 3−24 were dissolved in DMSO (100%) to an initial concentration of 2560 μg/mL and serially diluted in DMSO (100%). Initial solution and serial dilutions of Ciprofloxacin were prepared in 0.1 N HCL, respectively. 5 μL of each antibiotic dilution were added to the microdilution tray to reach albicidin concentrations of 128 μg/mL to 0.016 μg/mL per well. One row of each well plate served as a growth control without antibiotic substances and another row of the microdilution tray served as sterility control (only MHB II - media). The antimicrobial effect of the solvent (DMSO) was tested by adding 5 μL DMSO to several wells. Purity check and cell titer control were performed according to International S tandard M07-A9 on Mueller-Hinton II Agar (Mueller Hinton II Broth, 15 g/L agar-agar). Both microdilution trays and agar plates were incubated at 30−37°C for 16 h and subsequently analyzed for growth inhibition by naked eye. The following primary panel of microorganisms were purchased from German Collection of Microorganisms and Cell Cultures (DSMZ):
# (§4) Escherichia coli DSM 1116
# (§5) Micrococcus luteus DSM 1790
# (§6) Mycobacterium phlei DSM 750
# (§7) Salmonella typhimurium TA100 was kindly provided by Prof. Dr. Vera Meyer (Technische Universität Berlin). […]
# (§8) was purchased as part of the single gene knockout library of E. coli K12 BW25113 (Keio collection) from Horizon Discovery group plc (Cambridge, UK).
# [4] = tested on: E. coli BW25113; assay: MIC determination (broth microdilution); type: cell-based
# Procedure: as §1, §2, §3, §4, §5, §6, §7, §8
# [5] = tested on: E. coli DSM1116; assay: MIC determination (broth microdilution); type: cell-based
# Procedure: as §1, §2, §3, §4, §5, §6, §7, §8
# [6] = tested on: Micrococcus luteus DSM 1790; assay: MIC determination (broth microdilution); type: cell-based; settings: DSM1790, read-out: MIC M. luteus
# Procedure: as §1, §2, §3, §4, §5, §6, §7, §8
# [7] = tested on: Mycobacterium phlei DSM 750; assay: MIC determination (broth microdilution); type: cell-based
# Procedure: as §1, §2, §3, §4, §5, §6, §7, §8
# [8] = Escherichia coli, BW25113; read-out: MIC E. coli BW25113
# [9] = Escherichia coli, DSM1116; read-out: MIC E. coli DSM1116
# [10] = Mycolicibacterium phlei, DSM750; read-out: MIC M. phlei
# [11] = Escherichia coli, BW25113, read-out: MIC E. coli BW25113
# [12] = Escherichia coli, DSM1116, read-out: MIC E. coli DSM1116
SMILES,Gyrase inhibition strong+ / weak − [1],Rt (retention time) [2] [min],MIC [3] [µg/mL],"MIC [4, 8] [µg/mL]","MIC [5, 9] [µg/mL]",MIC [6] [µg/mL],"MIC [7, 10] [µg/mL]","MIC [4, 11] [µg/mL]","MIC [5, 12] [µg/mL]","MIC ([7]; Mycolicibacterium phlei, DSM750, read-out: MIC M. phlei) [µg/mL]","CC50 ([1]; E. coli gyrase DNA cleavage, read-out: CC50 (concentration at half-maximum cleavage)) [µM]"
COc1c(NC(=O)c2ccc(NC(=O)c3ccc(NC(=O)[C@H](Cc4c[nH]nn4)NC(=O)c4ccc(NC(=O)c5ccc6nc(C)ccc6c5)cc4)cn3)c(OC)c2O)ccc(C(=O)O)c1O [compound 16],+,6.94,,,,,,,,,
COc1c(NC(=O)c2ccc(NC(=O)c3ccc(NC(=O)[C@H](Cc4c[nH]nn4)NC(=O)c4ccc(NC(=O)c5ccc6nn[nH]c6c5)cc4)cn3)c(OC)c2O)ccc(C(=O)O)c1O [compound 24],+,7.16,0.5,0.125,0.125,0.5,8,,,,
COc1c(NC(=O)c2ccc(NC(=O)c3ccc(NC(=O)[C@H](Cc4c[nH]nn4)NC(=O)c4ccc(NC(=O)c5c[nH]c6ccccc6c5=O)cc4)cn3)c(OC)c2O)ccc(C(=O)O)c1O [compound 17],+,7.98,≤ 0.016,0.063,0.031,≤ 0.016,8,,,,
COc1c(NC(=O)c2ccc(NC(=O)c3ccc(NC(=O)[C@H](Cc4c[nH]nn4)NC(=O)c4ccc(NC(=O)[C@@H](C)Oc5ccc(O)cc5)cc4)cn3)c(OC)c2O)ccc(C(=O)O)c1O [compound 9],+,7.78,1,0.063,0.063,2,,,,,
COc1c(NC(=O)c2ccc(NC(=O)c3ccc(NC(=O)[C@H](Cc4c[nH]nn4)NC(=O)c4ccc(NC(=O)c5cc6cc(O)ccc6[nH]5)cc4)cn3)c(OC)c2O)ccc(C(=O)O)c1O [compound 21],+,7.50,1,,0.063,1,4,0.125,,,
COc1c(NC(=O)c2ccc(NC(=O)c3ccc(NC(=O)[C@H](Cc4c[nH]nn4)NC(=O)c4ccc(NC(=O)c5ccc6nc[nH]c6c5)cc4)cn3)c(OC)c2O)ccc(C(=O)O)c1O [compound 23],+,6.69,2,,,2,8,0.125,0.125,,
COc1c(NC(=O)c2ccc(NC(=O)c3ccc(NC(=O)[C@H](Cc4c[nH]nn4)NC(=O)c4ccc(NC(=O)c5cc(=O)c6cc(F)ccc6o5)cc4)cn3)c(OC)c2O)ccc(C(=O)O)c1O [compound 20],+,8.60,0.125,≤ 0.016,≤ 0.016,0.063,2,,,,
COc1c(NC(=O)c2ccc(NC(=O)c3ccc(NC(=O)[C@H](Cc4c[nH]nn4)NC(=O)c4ccc(NC(=O)c5cc6ccccc6cn5)cc4)cn3)c(OC)c2O)ccc(C(=O)O)c1O [compound 12],+,8.74,0.063,,,0.063,,≤ 0.016,≤ 0.016,1,
COc1c(NC(=O)c2ccc(NC(=O)c3ccc(NC(=O)[C@H](Cc4c[nH]nn4)NC(=O)c4ccc(NC(=O)c5ccc6ccccc6n5)cc4)cn3)c(OC)c2O)ccc(C(=O)O)c1O [compound 11],+,9.49,≤ 0.016,≤ 0.016,≤ 0.016,≤ 0.016,0.5,,,,0.018
CCn1cc(C(=O)Nc2ccc(C(=O)N[C@@H](Cc3c[nH]nn3)C(=O)Nc3ccc(C(=O)Nc4ccc(C(=O)Nc5ccc(C(=O)O)c(O)c5OC)c(O)c4OC)nc3)cc2)c(=O)c2cc3c(cc21)OCO3 [compound 19],−,8.45,0.031,≤ 0.016,0.016,0.016,0.25,,,,
